Reference: PMC4747340, “A new class of small molecule estrogen receptor-alpha antagonists that overcome anti-estrogen resistance” (Oncotarget, 2015)
Values belong to the compound of their own block, whether it stands above or below them.

Key:
[1] = MTT assay of cell viability; format: cell-based; settings: human, MCF-7 cells, 24-hr exposure, relative to untreated control
Procedure: Figure 3 Cytotoxicity and specificity of compounds A., B. Subconfluent proliferating cells were incubated with the indicated compound at the indicated concentration for 24-hr and then harvested for MTT dye reduction assays. Cell viability values (relative to untreated control cells) are means ± SEMs of 10 replicate wells. C., D. Subconfuent proliferating T47D cells were transfected overnight with the MMTV-Luc reporter (0.25 μg per well in 24-well dishes), washed, and allowed to recover for several hr in fresh medium. The cells were then treated with a synthetic progestin (R5020, 10 nM) plus the indicated compound at the indicated concentration for 24 hr and then harvested for luciferase assays. Luciferase activity is expressed relative to the MMTV-Luc control (no agents added) (panel A) or as a percentage of the +R5020 positive control (panel B). Values are means ± SEMs of four replicate wells. The data shown in each panel are representative of three independent experiments.
Assays were performed as described before. After the indicated treatment, cells in 96-well dishes were solubilized and assayed for MTT dye reduction. Cell viability was expressed as the amount of dye reduction relative to untreated control cells. and calculated as means ± SEMs for 10 replicate wells.

LCC2 cells = assay: cell proliferation assay (cell counts days 1, 3, 5), LCC2; format: cell-based, human; settings: DMEM + 5% charcoal-stripped serum
Procedure: (§1) Starting on day 1, cells were refed daily with fresh medium (DMEM plus 5% CSS) containing the indicated agent. In panel F, the cells were refed with medium also containing ER-siRNA or control-siRNA (100 nM) at the indicated times. Wells were counted on days 1, 3, and 5 to determine cell numbers. Values are means ± SEMs of triplicate wells. The data shown in each panel are representative of three independent experiments.
(§2) Assays were performed using as the growth medium phenol red-free DMEM containing 5% charcoal-stripped serum. Briefly, proliferating cells were harvested using trypsin, counted, inoculated into 12-well dishes at 1 × 10^4 cells per well on day 0 and allowed to attach and recover for 24 hr. The cells were then treated with the indicated agents for up to five days, with daily refeeding with fresh medium and agents. Triplicate wells were counted by Coulter Counter on days 1, 3, and 5. For experiments using siRNAs, cells were treated with the indicated siRNA (100 nM) starting on day -2, and fresh siRNA was added on days 0, 2, and 4.

LCC9 cells = assay: cell proliferation assay (cell counts days 1, 3, 5), LCC9; format: cell-based, human; settings: for LCC9 cell proliferation, compound combined with Tam: compound plus Tam (1 μM) compared with compound alone
Procedure: as §1, §2

[2] = molecular target: T1, estrogen receptor-alpha (ER) (Homo sapiens, UniProt P03372); assay: constitutive ER activity, ERE-TK-Luc reporter, in anti-estrogen resistant LCC9 cells; format: cell-based; set-up: LCC9 cells in 24-well dishes were transfected overnight with the ERE-TK-Luc reporter plasmid; endogenous in cells; host or cells: LCC9; settings: for IC50: LCC9, no E2, 24 hr, read-out: IC50 for inhibition of ER activity in LCC9
T1 sequence (P03372 1-595): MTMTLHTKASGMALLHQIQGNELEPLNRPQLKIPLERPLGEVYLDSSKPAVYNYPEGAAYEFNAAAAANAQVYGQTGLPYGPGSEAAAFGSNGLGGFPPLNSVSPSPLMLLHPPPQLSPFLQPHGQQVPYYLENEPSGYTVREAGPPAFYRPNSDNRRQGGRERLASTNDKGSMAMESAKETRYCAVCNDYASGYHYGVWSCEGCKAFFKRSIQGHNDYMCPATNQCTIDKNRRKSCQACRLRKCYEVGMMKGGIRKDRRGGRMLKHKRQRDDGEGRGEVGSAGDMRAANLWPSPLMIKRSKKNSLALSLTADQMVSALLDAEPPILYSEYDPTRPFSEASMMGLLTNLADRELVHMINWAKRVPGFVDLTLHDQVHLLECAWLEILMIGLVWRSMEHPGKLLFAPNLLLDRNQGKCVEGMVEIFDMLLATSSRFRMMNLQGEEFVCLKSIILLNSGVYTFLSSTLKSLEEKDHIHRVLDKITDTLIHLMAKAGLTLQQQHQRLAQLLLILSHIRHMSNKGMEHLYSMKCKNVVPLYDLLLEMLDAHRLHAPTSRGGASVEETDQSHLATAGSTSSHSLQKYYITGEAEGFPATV
Procedure: For MCF-7, luciferase activity is expressed as a fold-change relative to the no E2 control. For LCC9, luciferase activity is expressed relative to the control without the reporter present. Values plotted are means ± SEMs of four replicate wells. The data shown in each panel are representative of three independent experiments.
The cells were then treated with the indicated concentrations of the six bioactive compounds or vehicle only (DMSO) for 24-hr and assayed for luciferase activity. Luciferase activity is expressed as a percentage of the DMSO control. Values are means ± SEMs of four replicate wells. The data shown in each panel are representative of three independent experiments.
The cells were then harvested for luciferase assays. Luciferase activity was expressed as a fold-change relative to the no reporter control. Values plotted are means ± SEMs of four replicate wells. The data shown are representative of three independent experiments.
Subconfluent cells in 24-well dishes were transfected overnight with 0.25 μg of each indicated vector plus the ERE-TK-Luc reporter in serum-free DMEM containing Lipofectamine2000 (Life Technologies, Washington, DC). Total transfected DNA was kept constant by addition of control vector. The cells were washed, incubated in phenol red-free DMEM containing 5% charcoal-stripped serum (obtained from the Tissue Culture Shared Resource) (0.2 ml/well) ± E2 (10 nM) ± the indicated compound for 24-hr, and harvested for luciferase assays. For each assay condition was tested in quadrupicate. To monitor the transfection efficiency, cultures were co-transfected with plasmid pRSV-β-gal (Promega, Madison, WI) to visualize transfected cells by X-gal staining.

effect on ER activity in LCC9 cells, single agent ([2]; LCC9, 24 hr, Tam 5 μM in b8): inhibited ER activity in LCC9 cells | IC50 [2]: ≤ 1 µM
SMILES: O=C(c1cc(Br)ccc1O)c1cc(Br)ccc1O [4631-P/1]
viability at 24 h, 1 µM [1]: 100% | viability at 24 h, 20 µM [1]: > 90% | proliferation of Tamoxifen-resistant LCC2 cells (LCC2 cells): inhibited ER-dependent cell proliferation | effect on LCC9 cell growth, single agent (LCC9 cells; DMEM + 5% charcoal-stripped serum, up to 5 days, 4631-P/1 at 1 μM): inhibited LCC9 cell growth | LCC9 cell proliferation, compound combined with Tam (LCC9 cells): greater inhibition of cell proliferation than 4631-P/1 alone | ER activity in LCC9 cells, compound combined with Tam ([2]; compound plus Tam compared with compound alone, 24 hr): significantly lower ER activity than 4631-P/1 alone

SMILES: O=C(CC(c1ccccc1)N1CCCCC1)c1ccccc1 (centres unmarked) [35446-L/1, 1,3-diphenyl-3-(piperidin-1-yl)propan-1-one]
viability at 24 h, 1 µM [1]: 100% | viability at 24 h, 20 µM [1]: > 90% | proliferation of Tamoxifen-resistant LCC2 cells (LCC2 cells): inhibited ER-dependent cell proliferation | LCC9 cell proliferation in ER-siRNA-treated cells (LCC9 cells; ER-siRNA 100 nM): little effect on cell proliferation | LCC9 cell proliferation, compound combined with Tam (LCC9 cells): greater inhibition of LCC9 proliferation than did 35466-L/1 alone | IC50 [2]: ≤ 1 µM
